The source made the active and inactive calls. The calls are words filed in the database; no cut-off is given here.
Experiments:
[1] = Plasma concentration in Wistar Han rat at 1 mg/kg, iv measured 0.25 hrs post compound administration; format: ADME, organism-based
[2] = Ratio of drug level in brain to plasma in Wistar Han rat at 5 mg/kg, iv after 1 hr; format: ADME, organism-based; details: read-out: BPR
[3] = Plasma concentration in Wistar Han rat at 1 mg/kg, iv measured 1 hr post compound administration; format: ADME, organism-based
Rattus norvegicus [4] = experiment: Toxicity in Wistar Han rat assessed as assessed as clinical signs changes at 5 mg/kg, iv after 1 hr; format: organism-based; details: in vivo
Rattus norvegicus [5] = experiment: Toxicity in Wistar Han rat assessed as clinical signs changes at 1 mg/kg, iv after 1 hr; format: organism-based; details: in vivo
[6] = Drug level in Wistar Han rat brain at 5 mg/kg, iv measured 1 hr post compound administration; format: ADME, organism-based; details: read-out: Drug uptake
[7] = Plasma concentration in Wistar Han rat at 5 mg/kg, iv measured 1 hr post compound administration; format: ADME, organism-based
[8] = Plasma concentration in Wistar Han rat at 5 mg/kg, iv measured 0.25 hrs post compound administration; format: ADME, organism-based
Brain = experiment: (§1) Drug level in Wistar Han rat brain at 1 mg/kg, iv measured 1 hr post compound administration; format: ADME, organism-based; details: in vivo, 1 h, BLD = below limit of detection
Sus scrofa = species: Sus scrofa; experiment: Displacement of [3H]-(+)-MK 801 from PCP binding site of NMDA receptor in pig brain cortex membranes at 10 uM after 120 mins by solid scintillation counting; format: cell membranes
[9] = biological target: T1, Kappa-type opioid receptor (Homo sapiens, UniProt P41145); experiment: Agonist activity at recombinant human kappa-type opioid receptor expressed in HEK293 cells at 1 uM after 30 mins by [35S]GTPgammaS binding assay; format: functional, cell-based
[10] = biological target: Kappa-type opioid receptor (Cavia porcellus, UniProt P41144); experiment: Displacement of [3H]U-69,593 from kappa-type opioid receptor in guinea pig brain membranes after 120 mins by solid scintillation counting; format: cell membranes, Membrane
Rattus norvegicus [11] = species: Rattus norvegicus; experiment: Displacement of [3H]-DTG from sigma 2 receptor in rat liver membranes at 1 uM after 120 mins by scintillation counting; format: cell membranes; details: Membrane
[12] = biological target: Mu-type opioid receptor (Cavia porcellus) (UniProt P97266); experiment: Displacement of [3H]DAMGO from mu-type opioid receptor in guinea pig brain membranes at 1 uM after 120 mins by solid scintillation counting; format: cell membranes; details: Membrane
Cavia porcellus [13] = species: Cavia porcellus; experiment: Displacement of [3H]DPDPE from delta-type opioid receptor in guinea pig brain membranes at 1 uM after 120 mins by solid scintillation counting; format: cell membranes; details: Membrane
[14] = Stability of the compound in buffer; format: physicochemical
[15] = biological target: Sigma non-opioid intracellular receptor 1 (Cavia porcellus) (UniProt Q60492); experiment: Displacement of [3H]-(+)-pentazocine from sigma1-type […] receptor in guinea pig cortex membranes at 1 uM after 120 mins by solid scintillation counting; format: cell membranes
[16] = biological target: T1, Kappa-type opioid receptor; experiment: Agonist activity at recombinant human kappa-type opioid receptor expressed in HEK293 cells after 30 mins by [35S]GTPgammaS binding assay; format: functional, cell-based
Mus musculus [17] = experiment: (§2) Antiinflammatory activity in oxazolone-induced delayed type hypersensitivity BALB/c mouse model assessed as reduction in ear weight at 0.1 to 2.5 mg applied topically on ear administered 3 hrs prior to oxazolone challenge on day 7 to 12 post sensitization followed by re-administration of compound on day 13 to 18 without oxazolone challenge measured on day 19; format: functional
Mus musculus [18] = experiment: Antiinflammatory activity in oxazolone-induced delayed type hypersensitivity BALB/c mouse model assessed as effect on histology changes at 0.1 to 2.5 mg applied topically on ear administered 3 hrs prior to oxazolone challenge on day 7 to 12 post sensitization followed by re-administration of compound on day 13 to 18 without oxazolone challenge measured daily prior to treatment from day 7 to 19 by H and E staining based assay; format: functional
Cavia porcellus [19] = species: Cavia porcellus; experiment: Selectivity ratio of Ki for delta-type opioid receptor in guinea pig brain membranes to Ki for kappa-type opioid receptor in guinea pig brain membranes; format: cell membranes
Mus musculus [20] = experiment: Antiinflammatory activity in oxazolone-induced delayed type hypersensitivity BALB/c mouse model assessed as reduction in ear swelling at 0.1 to 2.5 mg applied topically on ear administered 3 hrs prior to oxazolone challenge on day 7 to 12 post sensitization followed by re-administration of compound on day 13 to 18 without oxazolone challenge measured daily prior to treatment from day 7 to 19; format: functional
Rattus norvegicus [21] = experiment: Toxicity in Wistar Han rat assessed as induction of slight lethargy at 1 mg/kg, iv after 0.25 hrs; format: organism-based; details: in vivo
[22] = Ratio of drug level in brain to plasma in Wistar Han rat at 1 mg/kg, iv after 1 hr; format: ADME, organism-based; details: read-out: BPR
Rattus norvegicus [23] = experiment: Toxicity in Wistar Han rat assessed as induction of slight lethargy at 5 mg/kg, iv after 1 hr; format: organism-based; details: in vivo
[24] = as §1; format: ADME, organism-based; details: Wistar Han, brain, read-out: Drug uptake
Mus musculus [25] = experiment: Antinociceptive activity in sc dosed mouse model of acetic acid-induced writhing; format: functional
Mus musculus [26] = experiment: as §2, with “as” for “as reduction in”, “0.5” for “0.1 to 2.5”, “19 (reference value: 30.2 +/- 0.7 mg)” for “19”; format: functional
Mus musculus [27] = experiment: Antiinflammatory activity in arachidonic acid-induced ear dermatitis ICR mouse model assessed as reduction in ear swelling at 3 mg administered twice tropically 30 mins prior and 15 mins after arachidonic acid addition measured 60 mins post arachidonic acid challenge relative to control; format: functional
Mus musculus [28] = experiment: Antiinflammatory activity in arachidonic acid-induced ear dermatitis ICR mouse model assessed as reduction in ear swelling at 0.3 mg administered twice tropically 30 mins prior and 15 mins after arachidonic acid addition measured 60 mins post arachidonic acid challenge relative to control; format: functional
Mus musculus [29] = experiment: Antiinflammatory activity in arachidonic acid-induced ear dermatitis ICR mouse model assessed as reduction in ear swelling at 0.1 mg administered twice tropically 30 mins prior and 15 mins after arachidonic acid addition measured 60 mins post arachidonic acid challenge relative to control; format: functional
Mus musculus [30] = experiment: CNS toxicity in sc dosed mouse model of acetic acid-induced writhing assessed as lowest dose causing side effects; format: organism-based; details: in vivo
Mus musculus [31] = experiment: Antiinflammatory activity in arachidonic acid-induced ear dermatitis ICR mouse model assessed as reduction in ear swelling at 1 mg administered twice tropically 30 mins prior and 15 mins after arachidonic acid addition measured 60 mins post arachidonic acid challenge relative to control; format: functional
[32] = Displacement of [3H]-DTG from sigma 2 receptor in rat liver membranes after 120 mins by scintillation counting; format: cell membranes, Membrane
Mus musculus [33] = experiment: as §2, with “as” for “as reduction in”, “at” for “at 0.1 to”, “19 (reference value: 30.2 +/- 0.7 mg)” for “19”; format: functional

T1 sequence (P41145 whole entry): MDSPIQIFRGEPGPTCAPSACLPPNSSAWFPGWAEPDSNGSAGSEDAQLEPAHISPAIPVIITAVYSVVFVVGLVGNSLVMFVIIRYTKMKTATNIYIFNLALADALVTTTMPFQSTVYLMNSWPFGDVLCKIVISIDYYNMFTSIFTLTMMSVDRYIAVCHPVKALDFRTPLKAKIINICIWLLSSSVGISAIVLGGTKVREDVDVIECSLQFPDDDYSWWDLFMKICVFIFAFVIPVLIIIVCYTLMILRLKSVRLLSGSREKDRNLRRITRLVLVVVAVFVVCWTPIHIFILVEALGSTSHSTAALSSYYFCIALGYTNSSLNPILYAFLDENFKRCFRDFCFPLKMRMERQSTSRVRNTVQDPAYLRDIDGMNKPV
Sequence of Sigma non-opioid intracellular receptor 1 (Cavia porcellus) (Q60492 whole entry): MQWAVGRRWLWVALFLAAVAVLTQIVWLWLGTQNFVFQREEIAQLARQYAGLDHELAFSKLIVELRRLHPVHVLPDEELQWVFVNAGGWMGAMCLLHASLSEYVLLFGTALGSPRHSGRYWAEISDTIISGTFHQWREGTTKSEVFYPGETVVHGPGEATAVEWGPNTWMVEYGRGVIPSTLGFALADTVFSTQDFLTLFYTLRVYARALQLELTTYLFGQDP
Sequence of Mu-type opioid receptor (Cavia porcellus) (P97266 whole entry): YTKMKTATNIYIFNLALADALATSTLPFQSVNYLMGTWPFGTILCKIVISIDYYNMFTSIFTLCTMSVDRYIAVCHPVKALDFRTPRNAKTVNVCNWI
Sequence of Kappa-type opioid receptor (Cavia porcellus, UniProt P41144) (P41144 whole entry): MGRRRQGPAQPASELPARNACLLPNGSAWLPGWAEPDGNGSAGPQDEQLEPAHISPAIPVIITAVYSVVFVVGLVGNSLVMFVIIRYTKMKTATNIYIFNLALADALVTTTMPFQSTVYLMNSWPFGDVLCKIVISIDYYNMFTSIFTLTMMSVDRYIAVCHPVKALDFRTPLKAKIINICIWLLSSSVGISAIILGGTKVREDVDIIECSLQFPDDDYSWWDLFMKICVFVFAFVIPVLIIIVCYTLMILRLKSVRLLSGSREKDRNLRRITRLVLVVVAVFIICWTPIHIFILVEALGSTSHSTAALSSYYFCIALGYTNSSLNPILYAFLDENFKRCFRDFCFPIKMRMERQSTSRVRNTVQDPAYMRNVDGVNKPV

`COC(=O)N1CCN(C(=O)Cc2ccc(Cl)c(Cl)c2)[C@@H]2[C@@H](N3CC[C@H](O)C3)CCC[C@@H]21.Cl` gave a concentration at 0.25 h [1] of 599 ng/mL, a Kp at 1 h [2] of 0.11 and a concentration at 1 h [3] of 128 ng/mL. The Activity (Rattus norvegicus [4]) was “Non-Toxic”, the Activity (Rattus norvegicus [5]) was “Non-Toxic” and the concentration at 1 h [6] was 74.1 ng/g. The concentration at 1 h [7] was 669 ng/mL, the concentration at 0.25 h [8] was 1440 ng/mL and the Drug uptake (Brain) was “Bld”.
Compound `CC(C)OC(=O)CN1CCN(C(=O)Cc2ccc(Cl)c(Cl)c2)[C@@H]2[C@@H](N3CCCC3)CCC[C@@H]21` has an inhibition (Sus scrofa) of 1%, an Activity [9] of 94% and a Ki [10] of 1.4 nM. It also gave an inhibition (Rattus norvegicus [11]) of 26%, an inhibition [12] of 7% and an inhibition (Cavia porcellus [13]) of 0%. The Stability [14] was “Unstable”, the inhibition [15] was 0% and the EC50 [16] was 5 nM.
In the case of `COC(=O)N1CCN(C(=O)Cc2ccc(F)c(Cl)c2)[C@@H]2[C@@H](N3CC[C@H](F)C3)CCC[C@@H]21`, the inhibition (Sus scrofa) is reported as 0%, the Activity [9] is reported as 92% and the Activity (Mus musculus [17]) is reported as “inactive”. For the same compound, the Activity (Mus musculus [18]) was “Active”, the Ratio Ki (Cavia porcellus [19]) was 100 and the inhibition (Rattus norvegicus [11]) was 0%. For the same compound, the inhibition [12] was 0%, the inhibition [15] was 0% and the Activity (Mus musculus [20]) was “inactive”.
In the case of `COC(=O)N1CCN(C(=O)Cc2ccc(Cl)c(Cl)c2)[C@@H]2[C@@H](N(C)C)CCC[C@@H]21.Cl`, the Activity (Rattus norvegicus [21]) is reported as “Toxic”, the concentration at 0.25 h [1] is reported as 355 ng/mL and the concentration at 1 h [3] is reported as 186 ng/mL. For the same compound, the Kp at 1 h [22] was 0.54, the Activity (Rattus norvegicus [23]) was “Toxic” and the concentration at 1 h [24] was 101 ng/g.
For `COC(=O)N1CCN(C(=O)Cc2ccc(Cl)c(Cl)c2)[C@@H]2[C@@H](N3CCCC3)CCC[C@@H]21`, the ED50 (Mus musculus [25]) was 0.26 mg/kg, the Activity (Mus musculus [26]) was 27.5 mg and the “inhibition (INH)” value (Mus musculus [27]) was 51%. The “inhibition (INH)” value (Mus musculus [28]) was 27%, the “inhibition (INH)” value (Mus musculus [29]) was 23% and the MTC (Mus musculus [30]) was 0.06 mg/kg. The “inhibition (INH)” value (Mus musculus [31]) was 27%, the Ki [32] was 252 nM and the Activity (Mus musculus [33]) was 28.2 mg.
